# According to patent publication US12371454B2, “Cyclic peptide compound having Kras inhibitory action” (priority 2019, dated 2025):
# Starred links: 1 amine or outer side, 2 acyl side, 3 side chain; linkers in the order of their positions; H or OH if unused. Positions of bridges follow the written chain, without caps; N, C: chain ends. Non-standard residues stand in square brackets, D forms with d. Residues, ends and D or L forms follow the SMILES beside them. *: point of attachment. hPhe(3-Cl-4-CF3) = N[C@@H](CCc1ccc(C(F)(F)F)c(Cl)c1)C(=O)O; hPhe(3-F,4-CF3) = N[C@@H](CCc1ccc(C(F)(F)F)c(F)c1)C(=O)O; X57 = N#Cc1cc(CC[C@H](N[*:1])C(=O)[*:2])ccc1C(F)(F)F; NMePhe(4-CF3) = CN[C@@H](Cc1ccc(C(F)(F)F)cc1)C(=O)O; 3Oxa8azabicyclo(3.2.1)octane = C1CC2COCC1N2*; NMePhe(4-Me) = CN[C@@H](Cc1ccc(C)cc1)C(=O)O; NMedβ3hAla = C[C@H](CC(=O)[*:2])N(C)[*:1]; NMeAla(cPent) = CN[C@@H](CC1CCCC1)C(=O)O; NMeGly(cPent) = CN[C@H](C(=O)O)C1CCCC1; Pro(4,4-F2) = O=C(O)[C@@H]1CC(F)(F)CN1; NMeCha = CN[C@@H](CC1CCCCC1)C(=O)O; cisHyp = O=C(O)[C@@H]1C[C@H](O)CN1; NMehLeu = CN[C@@H](CCC(C)C)C(=O)O; NEtLeu = CCN[C@@H](CC(C)C)C(=O)O; NMeAhp(2) = CCCCC[C@H](NC)C(=O)O; NMeChg = CN[C@H](C(=O)O)C1CCCCC1; NMeI = CC[C@H](C)[C@H](NC)C(=O)O; NMeD = CN[C@@H](CC(=O)O)C(=O)O; NMeL = CN[C@@H](CC(C)C)C(=O)O; NMeV = CN[C@H](C(=O)O)C(C)C; d(β3hA) = C[C@@H](N)CC(=O)O; NMeS = CN[C@@H](CO)C(=O)O; Morpholide = C1CN(*)CCO1; NMeA = CN[C@@H](C)C(=O)O; Piperidide = C1CCN(*)CC1; Pyrrolidide = C1CCN(*)C1; X45 = FC(F)Oc1ccc(C*)cc1; Ac5c = NC1(C(=O)O)CCCC1; Aze = O=C(O)[C@@H]1CCN1; Cyclopropyl = C1CC1*; NEtG = CCNCC(=O)O; Sar = CNCC(=O)O; Propyl = CCC*
# System: Human pancreatic cancer cell line AsPC-1
# Assay: Measurement of AsPC-1 cell growth inhibition (AsPC-1 CGI)
# Assay type: cell-based
# Conditions: 96 h
# In short: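 AsPC-1 cells in 15% FBS RPMI-1640 were exposed to test compound for 96 hours at 37° C, with CellTiter-Glo as endpoint.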
row,Structure (SMILES),IC50
1,CC[C@H](C)[C@@H]1NC(=O)[C@H](CC(C)C)N(C)C(=O)C[C@@H](C)NC(=O)[C@H](C(C)C)N(C)C(=O)C2(CCCC2)NC(=O)[C@@H]2CCCN2C(=O)[C@H](CCc2ccc(C(F)(F)F)c(Cl)c2)NC(=O)CN(C)C(=O)[C@H](Cc2ccc(C)cc2)N(C)C(=O)[C@@H]2CCN2C(=O)[C@H](C)N(C)C1=O [Compound 1801] (cyclo([Ac5c][NMeV][d(β3hA)][NMeL]I[NMeA][Aze][NMePhe(4-Me)][Sar][hPhe(3-Cl-4-CF3)]P)),50 to 100 nM
2,CC[C@H](C)[C@@H]1NC(=O)[C@H](CC(C)C)N(C)C(=O)C[C@@H](C(=O)N2CCCCC2)N(C)C(=O)[C@H](C2CCCCC2)N(C)C(=O)C2(CCCC2)NC(=O)CN(CC)C(=O)[C@H](CCc2ccc(C(F)(F)F)c(Cl)c2)NC(=O)CN(C)C(=O)[C@H](CC2CCCCC2)N(C)C(=O)CN(C)C(=O)CN(C)C1=O [Compound 160] ([NMeL]I[Sar][Sar][NMeCha][Sar][hPhe(3-Cl-4-CF3)][NEtG][Ac5c][NMeChg][NMeD]-Piperidide; lactam N-11),50 to 100 nM
3,CCCCC[C@H]1C(=O)N[C@@H]([C@@H](C)CC)C(=O)N(C)[C@@H](C)C(=O)N2CC[C@H]2C(=O)N(C)[C@@H](CC2CCCCC2)C(=O)N(C)CC(=O)N[C@@H](CCc2ccc(C(F)(F)F)c(Cl)c2)C(=O)N2CCC[C@H]2C(=O)NC2(CCCC2)C(=O)N(C)[C@@H](C(C)C)C(=O)N(C)[C@H](C(=O)N2CCCCC2)CC(=O)N1C [Compound 1705] ([NMeAhp(2)]I[NMeA][Aze][NMeCha][Sar][hPhe(3-Cl-4-CF3)]P[Ac5c][NMeV][NMeD]-Piperidide; lactam N-11),100 to 500 nM
4,CC[C@H](C)[C@@H]1NC(=O)[C@H](CC(C)C)N(C)C(=O)C[C@@H](C(=O)N2CCCCC2)N(C)C(=O)[C@H](C(C)C)N(C)C(=O)C2(CCCC2)NC(=O)[C@@H]2CCCN2C(=O)[C@H](CCc2ccc(C(F)(F)F)c(Cl)c2)NC(=O)CN(C)C(=O)[C@H](CC2CCCCC2)N(C)C(=O)[C@@H]2CCN2C(=O)[C@H](COC2CC2)N(C)C1=O [Compound 676] ([NMeL]I[NMeS](Cyclopropyl)[Aze][NMeCha][Sar][hPhe(3-Cl-4-CF3)]P[Ac5c][NMeV][NMeD]-Piperidide; lactam N-11),100 to 500 nM
5,"CCCOC[C@H]1C(=O)N(C)CC(=O)N[C@@H](CCc2ccc(C(F)(F)F)c(F)c2)C(=O)N2CCC[C@H]2C(=O)NC2(CCCC2)C(=O)N(C)[C@@H](C2CCCC2)C(=O)N(C)[C@H](C(=O)N2C3CCC2COC3)CC(=O)N(C)[C@@H](CC(C)C)C(=O)N[C@@H]([C@@H](C)CC)C(=O)N(C)[C@@H](C)C(=O)N2CC[C@H]2C(=O)N1C [Compound 1030] ([NMeL]I[NMeA][Aze][NMeS](Propyl)[Sar][hPhe(3-F,4-CF3)]P[Ac5c][NMeGly(cPent)][NMeD]-{3Oxa8azabicyclo(3.2.1)octane}; lactam N-11)",20 to 50 nM
6,CC[C@H](C)[C@@H]1NC(=O)[C@H](CC(C)C)N(C)C(=O)C[C@@H](C(=O)N2CCCCC2)N(C)C(=O)[C@H](C(C)C)N(C)C(=O)C2(CCCC2)NC(=O)[C@@H]2CCCN2C(=O)[C@H](CCc2ccc(C(F)(F)F)c(Cl)c2)NC(=O)CN(C)C(=O)[C@H](Cc2ccc(C)cc2)N(C)C(=O)[C@@H]2CCN2C(=O)[C@H](C)N(C)C1=O [Compound 1828] ([NMeL]I[NMeA][Aze][NMePhe(4-Me)][Sar][hPhe(3-Cl-4-CF3)]P[Ac5c][NMeV][NMeD]-Piperidide; lactam N-11),100 to 500 nM
7,CC[C@H](C)[C@@H]1NC(=O)[C@H](CC(C)C)N(CC)C(=O)C[C@@H](C(=O)N2CCCC2)N(C)C(=O)[C@H]([C@@H](C)CC)N(C)C(=O)C2(CCCC2)NC(=O)[C@@H]2CCCN2C(=O)[C@H](CCc2ccc(C(F)(F)F)c(Cl)c2)NC(=O)CN(C)C(=O)[C@H](Cc2ccc(C(F)(F)F)cc2)N(C)C(=O)[C@@H]2CCN2C(=O)[C@H](C)NC1=O [Compound 1146] ([NEtLeu]IA[Aze][NMePhe(4-CF3)][Sar][hPhe(3-Cl-4-CF3)]P[Ac5c][NMeI][NMeD]-Pyrrolidide; lactam N-11),20 to 50 nM
8,CC[C@H](C)[C@@H]1NC(=O)[C@H](CC(C)C)N(C)C(=O)C[C@@H](C)NC(=O)[C@H](C(C)C)N(C)C(=O)C2(CCCC2)NC(=O)[C@@H]2CCCN2C(=O)[C@H](CCc2ccc(C(F)(F)F)c(Cl)c2)NC(=O)CN(C)C(=O)[C@H](CC2CCCCC2)N(C)C(=O)[C@@H]2CCN2C(=O)CN(C)C1=O [Compound 663] (cyclo([Ac5c][NMeV][d(β3hA)][NMeL]I[Sar][Aze][NMeCha][Sar][hPhe(3-Cl-4-CF3)]P)),100 to 500 nM
9,CC[C@H](C)[C@@H]1NC(=O)[C@H](CC2CCCC2)N(C)C(=O)C[C@@H](C(=O)N2CCOCC2)N(C)C(=O)[C@H](C2CCCC2)N(C)C(=O)C2(CCCC2)NC(=O)[C@@H]2CCCN2C(=O)[C@H](CCc2ccc(C(F)(F)F)c(Cl)c2)NC(=O)CN(C)C(=O)[C@H](C2CCCC2)N(C)C(=O)[C@@H]2CCN2C(=O)[C@H](C)NC1=O [Compound 1145] ([NMeAla(cPent)]IA[Aze][NMeGly(cPent)][Sar][hPhe(3-Cl-4-CF3)]P[Ac5c][NMeGly(cPent)][NMeD]-Morpholide; lactam N-11),100 to 500 nM
10,CC[C@H](C)[C@@H]1NC(=O)[C@H](CC(C)C)N(C)C(=O)C[C@@H](C(=O)N(C)C)N(C)C(=O)[C@H](C2CCCC2)N(C)C(=O)C2(CCCC2)NC(=O)[C@H](CC(=O)N2CCCC2)N(C)C(=O)[C@H](CCc2ccc(C(F)(F)F)c(Cl)c2)NC(=O)CN(C)C(=O)[C@H](CC2CCCCC2)N(C)C(=O)[C@@H]2CCN2C(=O)[C@H](C)N(C)C1=O [Compound 2097] ([NMeL]I[NMeA][Aze][NMeCha][Sar][hPhe(3-Cl-4-CF3)][NMeD](Pyrrolidide)[Ac5c][NMeGly(cPent)][NMeD]-NMe2; lactam N-11),100 to 500 nM
11,"CC[C@H](C)[C@@H]1NC(=O)[C@H](CC(C)C)N(C)C(=O)C[C@@H](C(=O)N2CCCCC2)N(C)C(=O)[C@H](C2CCCC2)N(C)C(=O)C2(CCCC2)NC(=O)[C@@H]2CCCN2C(=O)[C@H](CCc2ccc(C(F)(F)F)c(F)c2)NC(=O)CN(C)C(=O)[C@H](Cc2ccc(C)cc2)N(C)C(=O)[C@@H]2CCN2C(=O)[C@H](C)N(C)C1=O [Compound 1008] ([NMeL]I[NMeA][Aze][NMePhe(4-Me)][Sar][hPhe(3-F,4-CF3)]P[Ac5c][NMeGly(cPent)][NMeD]-Piperidide; lactam N-11)",20 to 50 nM
12,CC[C@H](C)[C@@H]1NC(=O)[C@H](CCC(C)C)N(C)C(=O)C[C@@H](C(=O)N2CCOCC2)N(C)C(=O)[C@H](C2CCCC2)N(C)C(=O)C2(CCCC2)NC(=O)[C@@H]2CCCN2C(=O)[C@H](CCc2ccc(C(F)(F)F)c(Cl)c2)NC(=O)CN(C)C(=O)[C@H](C2CCCC2)N(C)C(=O)[C@@H]2CCN2C(=O)[C@H](C)NC1=O [Compound 1223] ([NMehLeu]IA[Aze][NMeGly(cPent)][Sar][hPhe(3-Cl-4-CF3)]P[Ac5c][NMeGly(cPent)][NMeD]-Morpholide; lactam N-11),20 to 50 nM
13,"CC[C@H](C)[C@@H]1NC(=O)[C@H](CC(C)C)N(C)C(=O)C[C@@H](C(=O)N2CCCCC2)N(C)C(=O)[C@H](CC(C)C)N(C)C(=O)C2(CCCC2)NC(=O)[C@@H]2C[C@H](OCc3ccc(OC(F)F)cc3)CN2C(=O)[C@H](CCc2ccc(C(F)(F)F)c(F)c2)NC(=O)CN(C)C(=O)[C@H](CC2CCCCC2)N(C)C(=O)CN(C)C(=O)CN(C)C1=O [Compound 2135] ([NMeL]I[Sar][Sar][NMeCha][Sar][hPhe(3-F,4-CF3)][cisHyp](X45)[Ac5c][NMeL][NMeD]-Piperidide; lactam N-11)",> 500 nM
14,CC(C)C[C@H]1C(=O)N[C@@H](C(C)C)C(=O)N(C)[C@@H](C)C(=O)N2CC[C@H]2C(=O)N(C)[C@@H](CC2CCCCC2)C(=O)N(C)CC(=O)N[C@@H](CCc2ccc(C(F)(F)F)c(Cl)c2)C(=O)N2CCC[C@H]2C(=O)NC2(CCCC2)C(=O)N(C)[C@@H](C(C)C)C(=O)N(C)[C@H](C(=O)N2CCCCC2)CC(=O)N1C [Compound 1791] ([NMeL]V[NMeA][Aze][NMeCha][Sar][hPhe(3-Cl-4-CF3)]P[Ac5c][NMeV][NMeD]-Piperidide; lactam N-11),100 to 500 nM
15,"CC[C@H](C)[C@@H]1NC(=O)[C@H](CC(C)C)N(C)C(=O)C[C@@H](C(=O)N2CCCCC2)N(C)C(=O)[C@H](C2CCCC2)N(C)C(=O)C2(CCCC2)NC(=O)[C@@H]2CCCN2C(=O)[C@H](CCc2ccc(C(F)(F)F)c(F)c2)NC(=O)CN(C)C(=O)[C@H](CC2CCCCC2)N(C)C(=O)[C@@H]2CCN2C(=O)[C@H](C)N(C)C1=O [Compound 563] ([NMeL]I[NMeA][Aze][NMeCha][Sar][hPhe(3-F,4-CF3)]P[Ac5c][NMeGly(cPent)][NMeD]-Piperidide; lactam N-11)",20 to 50 nM
16,"CC[C@H](C)[C@@H]1NC(=O)[C@H](CC(C)C)N(C)C(=O)C[C@@H](C)N(C)C(=O)[C@H](C2CCCC2)N(C)C(=O)C2(CCCC2)NC(=O)[C@@H]2CC(F)(F)CN2C(=O)[C@H](CCc2ccc(C(F)(F)F)c(Cl)c2)NC(=O)CN(C)C(=O)[C@H](Cc2ccc(C(F)(F)F)cc2)N(C)C(=O)[C@@H]2CCN2C(=O)[C@H](C)N(C)C1=O [Compound 1062] (cyclo([Ac5c][NMeGly(cPent)][NMedβ3hAla][NMeL]I[NMeA][Aze][NMePhe(4-CF3)][Sar][hPhe(3-Cl-4-CF3)][Pro(4,4-F2)]))",20 to 50 nM
17,CC[C@H](C)[C@@H]1NC(=O)[C@H](CC(C)C)N(C)C(=O)C[C@@H](C(=O)N2CCCCC2)N(C)C(=O)[C@H](C2CCCC2)N(C)C(=O)C2(CCCC2)NC(=O)[C@@H]2CCCN2C(=O)[C@H](CCc2ccc(C(F)(F)F)c(C#N)c2)NC(=O)CN(C)C(=O)[C@H](CC2CCCCC2)N(C)C(=O)[C@@H]2CCN2C(=O)[C@H](C)N(C)C1=O [Compound 2072] ([NMeL]I[NMeA][Aze][NMeCha][Sar][X57]P[Ac5c][NMeGly(cPent)][NMeD]-Piperidide; lactam N-11),20 to 50 nM
